For test [1], the target named is T1, AmGSTF (Alopecurus myosuroides, UniProt Q9ZS17).
T1 construct: gene GST2c; full length, synthetic gene, His-tagged (C-His vector), E. coli, Ni-IDA-Sepharose purified, homodimer
T1 sequence (Q9ZS17 1-219): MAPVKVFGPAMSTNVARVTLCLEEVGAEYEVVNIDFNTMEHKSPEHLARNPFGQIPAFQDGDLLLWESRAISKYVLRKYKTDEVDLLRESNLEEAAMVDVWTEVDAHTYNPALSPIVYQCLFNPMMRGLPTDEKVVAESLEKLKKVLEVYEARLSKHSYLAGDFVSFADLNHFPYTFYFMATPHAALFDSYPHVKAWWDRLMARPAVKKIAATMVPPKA
Nature of the test: steady-state kinetics, CDNB conjugation. Type of test: biochemical. The conditions noted are these: read-out: S0.5 (mM) / CDNB; co-substrate GSH; 0.1 M sodium phosphate pH 6.5, 37 °C; positive cooperativity, nH 1.5. The text has this:
steady-state kinetics, CDNB conjugation on AmGSTF

The subject of test [2] is T2, sh101.
T2 construct: gene AmGSTF; DNA-shuffled GSTF, 11 mutations vs AmGSTF (named in text: S90G, E93K, Q119E, F122I, M125L, DEK132-134NQT)
The experiment in a line: steady-state kinetics, CDNB conjugation. It counts as biochemical, Alopecurus myosuroides. The settings on record: co-substrate GSH; 0.1 M sodium phosphate pH 6.5, 37 °C; nH 1.1; read-out: S0.5 (mM) / CDNB. From the text:
steady-state kinetics, CDNB conjugation on sh101

Test [3] concerns the target T3, HvGSTF (Hordeum vulgare, UniProt Q8VWW3).
T3 construct: gene GST6; full length, pEXP5-CT/TOPO template, His-tagged, E. coli, Ni-IDA-Sepharose purified, homodimer
T3 sequence (Q8VWW3 1-219): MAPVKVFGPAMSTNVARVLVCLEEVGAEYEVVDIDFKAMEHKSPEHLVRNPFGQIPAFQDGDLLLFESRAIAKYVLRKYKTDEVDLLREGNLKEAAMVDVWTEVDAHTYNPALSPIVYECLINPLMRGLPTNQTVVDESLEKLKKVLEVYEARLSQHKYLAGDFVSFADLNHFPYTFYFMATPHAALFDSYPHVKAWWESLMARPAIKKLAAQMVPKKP
Nature of the test: steady-state kinetics, CDNB conjugation. Type of test: biochemical. The conditions noted are these: read-out: S0.5 (mM) / CDNB; co-substrate GSH; 0.1 M sodium phosphate pH 6.5, 37 °C; positive cooperativity, nH 1.46. The text has this:
steady-state kinetics, CDNB conjugation on HvGSTF

Test [4] addresses T4, LrGSTF (Lolium rigidum, UniProt M5BPX4).
T4 construct: gene GST; full length, synthetic gene, His-tagged (C-His vector), E. coli, Ni-IDA-Sepharose purified, homodimer
T4 sequence (M5BPX4 1-219): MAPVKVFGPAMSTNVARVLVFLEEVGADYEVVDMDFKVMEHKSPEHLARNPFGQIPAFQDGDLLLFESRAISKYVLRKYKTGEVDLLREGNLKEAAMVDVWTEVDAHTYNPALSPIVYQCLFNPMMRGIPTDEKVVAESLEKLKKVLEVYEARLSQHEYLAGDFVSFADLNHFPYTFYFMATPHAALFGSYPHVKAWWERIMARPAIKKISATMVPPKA
The experiment in a line: steady-state kinetics, CDNB conjugation. The settings on record: read-out: S0.5 (mM) / CDNB; co-substrate GSH; 0.1 M sodium phosphate pH 6.5, 37 °C; positive cooperativity, nH 1.41. It counts as biochemical. From the text: steady-state kinetics, CDNB conjugation on LrGSTF

The target of test [5] is T5, TdGSTF (Triticum turgidum, UniProt A0A9R0QM20).
T5 construct: gene TRITD_1Bv1G036980; full length, pEXP5-CT/TOPO template, His-tagged, E. coli, Ni-IDA-Sepharose purified, homodimer
T5 sequence (A0A9R0QM20 1-219): T3 sequence (Q8VWW3 1-219) with D82N, E83G, N91D, L113I, K158E, S200R, I207V
Nature of the test: steady-state kinetics, CDNB conjugation. Type of test: biochemical. The settings on record: read-out: S0.5 (mM) / CDNB; co-substrate GSH; 0.1 M sodium phosphate pH 6.5, 37 °C; positive cooperativity, nH 1.43. From the text:
steady-state kinetics, CDNB conjugation on TdGSTF

Test [6] concerns T6, sh155.
T6 construct: gene AmGSTF; DNA-shuffled GSTF, 17 mutations vs AmGSTF (named in text: S90G, E93K, Q119E, F122I, M125L, DEK132-134NQT)
The experiment in a line: steady-state kinetics, CDNB conjugation. Type of test: biochemical, Alopecurus myosuroides. The settings on record: co-substrate GSH; 0.1 M sodium phosphate pH 6.5, 37 °C; nH 1.02; read-out: S0.5 (mM) / CDNB. The text has this: steady-state kinetics, CDNB conjugation on sh155

In test [7] the target is T4, LrGSTF. Nature of the test: dose-response inhibition of GST activity. Type of test: biochemical. From the text:
dose-response inhibition of GST activity on LrGSTF

Test [8] deals with T3, HvGSTF. The experiment in a line: dose-response inhibition of GST activity. Type of test: biochemical. The text has this: dose-response inhibition of GST activity on HvGSTF
Test [9] has as its target T1, AmGSTF. Nature of the test: dose-response inhibition of GST activity. Type of test: biochemical. From the text:
dose-response inhibition of GST activity on AmGSTF

In test [10] the test system is T2, sh101. The experiment in a line: dose-response inhibition of GST activity. Type of test: biochemical, Alopecurus myosuroides. From the text: dose-response inhibition of GST activity on sh101
The test system of test [11] is T6, sh155. Nature of the test: dose-response inhibition of GST activity. It counts as biochemical, Alopecurus myosuroides. The text has this: dose-response inhibition of GST activity on sh155
The next test has as its system T7, sh49.
T7 construct: gene AmGSTF; keeps F122, M125, E93 and DEK132-134 of AmGSTF; C-His, E. coli, dimer
The experiment in a line: dose-response inhibition of GST activity. Type of test: biochemical, Alopecurus myosuroides. From the text: dose-response inhibition of GST activity on sh49

Test [12] addresses T5, TdGSTF. Nature of the test: dose-response inhibition of GST activity. Type of test: biochemical. From the text:
dose-response inhibition of GST activity on TdGSTF

The subject of a further test is T8, sh168.
T8 construct: gene AmGSTF; has K93; keeps F122, M125 and DEK132-134 of AmGSTF; C-His, E. coli, dimer
Nature of the test: dose-response inhibition of GST activity. Type of test: biochemical, Alopecurus myosuroides. From the text: dose-response inhibition of GST activity on sh168

Data on two compounds can be found in article PMC9267659, “Directed Evolution of Phi Class Glutathione Transferases Involved in Multiple-Herbicide Resistance of Grass Weeds and Crops” (International Journal of Molecular Sciences, 2022).

Molecules are shown by their SMILES. Residue numbers refer to the chain shown, from its start.

As to `O=[N+]([O-])c1ccc(Cl)c([N+](=O)[O-])c1` [CDNB], the Km turned out to be 0.65 ± 0.03 mM at AmGSTF [1]; 0.41 ± 0.02 mM in the test with sh101 [2]; 0.52 ± 0.01 mM on HvGSTF [3]; 0.76 ± 0.04 mM on LrGSTF [4]; 0.51 ± 0.02 mM at TdGSTF [5]; 0.77 ± 0.06 mM in the test on sh155 [6].

With `CCCCOCN(C(=O)CCl)c1c(CC)cccc1CC` [butachlor], the IC50 was 7.1 ± 0.5 µM on LrGSTF [7]; 9.2 ± 0.6 µM on HvGSTF [8]; 7.3 ± 0.4 µM against AmGSTF [9]; 5.9 ± 0.4 µM in the test on sh101 [10]; 3.4 ± 0.1 µM in the test with sh155 [11]; 2.6 ± 0.04 µM in the test on sh49. In addition, the IC50 amounted to 9.9 ± 0.2 µM on TdGSTF [12] and 3.1 ± 0.08 µM in the test on sh168.

One may read the IC50 as the concentration needed to halve the response being measured.
